Source: patent US12102637B2, “Pharmaceutical formulations for treating endometriosis, uterine fibroids, polycystic ovary syndrome or adenomyosis” (AbbVie Inc., priority 2017, dated 2024)
“Also recorded” adds a separate entry of the source. Marks after values point to notes of the source that are not given here.

Columns and labels:
[1] = Pharmacokinetics in hepatic impairment; assay type: in vivo, human
Description: Elagolix exposures (Cmax and AUC) are similar between women with normal hepatic function and women with mild hepatic impairment. Elagolix exposures in women with moderate and severe hepatic impairment are approximately 3-fold and 7-fold, respectively, of exposures from women with normal hepatic function.
Compared to women with normal liver function, those with moderate hepatic impairment had approximately 3-fold higher elagolix exposures and those with severe hepatic impairment had approximately 7-fold higher elagolix exposures. Because of these increased exposures and risk for bone loss: Elagolix 150 mg once daily is recommended for women with moderate hepatic impairment (Child-Pugh B) with the duration of treatment limited to 6 months. Use of elagolix 200 mg twice daily is not recommended for women with moderate hepatic impairment. Elagolix is contraindicated in women with severe hepatic impairment (Child-Pugh C).

[2] = molecular target: efflux transporter P-glycoprotein (P-gp) (Homo sapiens, UniProt P08183); assay: Elagolix as inhibitor and substrate of P-gp
Chain of efflux transporter P-glycoprotein (P-gp) (P08183 whole entry): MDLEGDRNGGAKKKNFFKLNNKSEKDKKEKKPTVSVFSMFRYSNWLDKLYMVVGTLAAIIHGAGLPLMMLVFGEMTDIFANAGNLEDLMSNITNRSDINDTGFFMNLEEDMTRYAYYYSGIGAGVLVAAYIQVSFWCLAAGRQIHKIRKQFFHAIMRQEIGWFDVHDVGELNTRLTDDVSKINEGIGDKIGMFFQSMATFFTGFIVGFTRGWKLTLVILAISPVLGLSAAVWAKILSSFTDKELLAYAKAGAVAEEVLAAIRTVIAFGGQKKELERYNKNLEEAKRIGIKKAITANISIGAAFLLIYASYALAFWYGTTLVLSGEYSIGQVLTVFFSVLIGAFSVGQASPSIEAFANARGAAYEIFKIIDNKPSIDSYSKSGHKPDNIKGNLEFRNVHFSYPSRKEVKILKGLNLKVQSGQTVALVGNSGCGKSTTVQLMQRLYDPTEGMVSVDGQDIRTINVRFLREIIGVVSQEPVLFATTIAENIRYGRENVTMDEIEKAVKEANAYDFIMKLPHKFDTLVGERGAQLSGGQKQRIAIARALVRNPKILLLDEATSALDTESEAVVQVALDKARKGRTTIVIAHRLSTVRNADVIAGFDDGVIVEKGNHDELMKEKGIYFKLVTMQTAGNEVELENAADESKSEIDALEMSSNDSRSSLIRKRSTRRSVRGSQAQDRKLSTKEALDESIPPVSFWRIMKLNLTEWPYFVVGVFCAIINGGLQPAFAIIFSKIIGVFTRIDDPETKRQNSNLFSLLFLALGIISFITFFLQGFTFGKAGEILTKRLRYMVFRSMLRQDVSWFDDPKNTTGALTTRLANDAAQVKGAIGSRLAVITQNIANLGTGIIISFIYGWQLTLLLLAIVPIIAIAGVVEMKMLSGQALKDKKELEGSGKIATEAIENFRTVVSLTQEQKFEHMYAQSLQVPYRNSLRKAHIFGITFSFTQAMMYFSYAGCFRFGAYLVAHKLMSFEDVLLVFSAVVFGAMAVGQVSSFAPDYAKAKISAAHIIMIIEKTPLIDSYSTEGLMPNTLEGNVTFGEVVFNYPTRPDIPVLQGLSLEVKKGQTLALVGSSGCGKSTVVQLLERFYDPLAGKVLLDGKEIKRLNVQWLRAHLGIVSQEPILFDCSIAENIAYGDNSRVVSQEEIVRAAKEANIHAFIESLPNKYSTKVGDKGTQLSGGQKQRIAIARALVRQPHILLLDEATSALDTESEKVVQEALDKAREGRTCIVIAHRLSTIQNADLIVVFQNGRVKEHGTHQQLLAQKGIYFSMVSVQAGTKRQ
Description: Elagolix is an inhibitor of efflux transporter P-glycoprotein (P-gp) at 200 mg BID or higher, such as 300 mg BID or 400 mg QD or 600 mg QD. Co-administration with ELAGOLIX 200 mg BID may increase plasma concentration of drugs that are substrates of P-gp.
Elagolix is a substrate of CYP3A, P-gp, and organic anion transporting polypeptide (OATP)1B1. Clinically meaningful interactions are not expected when elagolix is co-administered with drugs that inhibit CYP3A or P-gp.

[3] = Pharmacokinetics in renal impairment; assay type: in vivo, human; settings: moderate to severe or end stage renal disease vs normal renal function
Description: The mean exposures are similar for women with moderate to severe or end stage renal disease (including women on dialysis) compared to women with normal renal function.

[4] = tested on: premenopausal women with endometriosis with associated pain; assay: Blinded extension studies EM-III and EM-IV (12 months); assay type: in vivo, human; settings: patients maintained on their dose
Description: Each placebo-controlled study assessed the reduction in endometriosis-associated pain over 6 months of treatment. More than 75 percent of women who completed Study EM-I and EM-II enrolled in the extension studies for an additional 6 months treatment period. Subjects were followed for up to 12 months post-treatment. In study EM-IV, efficacy was maintained when elagolix was taken with and without food.

rats = assay: 2-year carcinogenicity study in rats; assay type: in vivo; settings: rat
Description: The rat tumors were identified as being species-specific and of negligible relevance to humans. This conclusion is based on a follow-on thyroid and hepatic effects-related investigative study performed to document the possibility that thyroid and liver tumors may be specific to rat and occurred via induction of hepatic drug metabolizing enzymes at the high dose.

monkeys = assay: Repeat-dose study in monkeys (reproductive organs); assay type: in vivo, monkey; settings: monkeys, 75, 150, 300 and 600 mg/kg/day, all doses
Description: Based on pharmacologic actions of elagolix in humans a reversible effect on fertility may be expected in women.

[5] = BCS classification of Compound A; assay type: physicochemical
Description: Release Profile Drugs administered via oral solid dosage forms should dissolve in vivo before systemic absorption can take place. There are number of factors which affect drug dissolution, including physicochemical properties of the drug substance. […] Incomplete dissolution may result in highly variable inter- and intra patient bioavailability. It has been determined in the present application that Compound A is a BCS class III drug. It also has been determined in the present application that the monosodium salt of Compound A has a tendency to form a gel, particularly when present at an amount greater than about 10% by weight in the absence of an appropriate anti-gelling agent, when administered orally in a solid dosage form. Thus, it is desirable to provide oral solid dosage forms that facilitate drug dissolution.

[6] = tested on: women treated in Studies EM-1 and EM-2; assay: Suicidal ideation, suicidal behavior and mood disorders in Studies EM-1 and EM-2; assay type: in vivo, human
Description: Patients with depressive symptoms should be evaluated to determine whether the risks of continued therapy outweigh the benefits. Patients with new or worsening depression, anxiety or other mood changes should be referred to a mental health professional, as appropriate. Patients with suicidal ideation and behavior should seek immediate medical attention. Benefits and risks of continuing elagolix should be revaluated if such events occur and optionally, elagolix should be stopped with worsening or serious depression, anxiety, mood changes or suicidal ideation.
In the placebo-controlled trials (Studies EM-1 and EM-2), elagolix was associated with adverse mood changes, particularly in those with a history of depression.

[7] = Lactation study in rats (elagolix in pup plasma); assay type: in vivo, rat
Description: Pregnant rats were given diet containing elagolix throughout the gestation and lactation periods to achieve a daily elagolix dose of 400 mg/kg. During nursing the dams and litters were divided into restricted feeding and non-restricted groups to determine whether elagolix was secreted in the mother's milk. […] In pups of the non-restricted feeding group, elagolix plasma concentrations were measurable and approximately 1% of the mother's plasma concentrations.

[8] = tested on: bone mineral density (BMD); assay: Bone mineral density by DXA (lumbar spine, Z-score) in placebo-controlled and extension studies; assay type: in vivo, human; settings: for patients with Z-score below the normal lower bound of −2.0: following 12 months of treatment
Description: In the placebo-controlled and extension clinical studies, BMD was measured by DXA. Changes observed in BMD at other anatomical sites (femoral neck, total hip) were generally smaller than lumbar spine.

[9] = tested on: premenopausal women with endometriosis with associated pain; assay: Study EM-I: responders on Daily Endometriosis Pain Impact Scale; assay type: in vivo, human; settings: 150 mg QD
Description: Each placebo-controlled study assessed the reduction in endometriosis-associated pain over 6 months of treatment. More than 75 percent of women who completed Study EM-I and EM-II enrolled in the extension studies for an additional 6 months treatment period. Subjects were followed for up to 12 months post-treatment. See FIGS. 11-14 The co-primary efficacy endpoints were the proportion of responders for dysmenorrhea and pelvic pain not related to menses (also known as non-menstrual pelvic pain [NMPP]) at Month 3 compared to placebo. The primary analysis independently evaluated these endpoints using a daily diary that asked patients to assess their pain and its impact on their daily activities, over the previous 24 hours. […] Women were defined as responders if they experienced clinically meaningful reduction in dysmenorrhea and/or NMPP with no increased analgesic use for endometriosis associated pain. Dyspareunia was evaluated as a secondary endpoint using the Daily Endometriosis Pain Impact Scale.

[10] = Elagolix 150 mg QD, On Treatment Month 6
[11] = Elagolix 150 mg QD, On Treatment Month 12
[12] = Elagolix 200 mg BID, On Treatment Month 6
[13] = Elagolix 200 mg BID, On Treatment Month 12

For `COc1cccc(-c2c(C)n(Cc3c(F)cccc3C(F)(F)F)c(=O)n(C[C@H](NCCCC(=O)O)c3ccccc3)c2=O)c1F` [Compound A, 4-((R)-2-[5-(2-fluoro-3-methoxy-phenyl)-3-(2-fluoro-6-trifluoromethyl-benzyl)-4-methyl-2,6-dioxo-3,6-dihydro-2H-pyrimidin-1-yl]-1-phenyl-ethylamino)-butyric acid], the “exposures (Cmax and AUC) vs normal hepatic function” value ([1]; mild hepatic impairment) was “similar”, the “exposures vs normal hepatic function” value ([1]; moderate hepatic impairment) was “approximately 3 fold” and the “exposures vs normal hepatic function” value ([1]; severe hepatic impairment, listed as Elagolix) was about 7 fold. The “exposures vs normal hepatic function” value ([1]; severe hepatic impairment, listed as elagolix) was “approximately 7 fold”, the “substrate of P-gp” value [2] was “substrate” and the “inhibition of efflux transporter P-glycoprotein (P-gp)” value ([2]; at 200 mg BID or higher) was “inhibitor”. For the same compound, the “exposures (Cmax and AUC) in renal impairment” value [3] was “not altered by renal impairment”, the “durability of improvement in dysmenorrhea, NMPP and dyspareunia” value [4] was “demonstrated for a total of 12 months” and the “margin of safety with respect to 200 mg BID in women” value (rats; both, in vivo, 2 years) was 13 fold. The “tumors, 2-year carcinogenicity study” value (rats; high dose) was “increase in thyroid (male and female) and liver (males only) tumors”, the “reproductive organ findings in repeat-dose study” value (monkeys) was “reversible atrophy of reproductive organs (cervix, uterus and vagina)” and the BCS class [5] was “BCS class III”. For the same compound, the “Completed Suicide, %” value ([6]; 150 mg Once Daily (N = 475)) was 0.2%, the “Depressed Mood, depression, depressive symptoms and or tearfulness, %” value ([6]; 150 mg Once Daily (N = 475)) was 2.7% and the “Mood altered, mood swings, %” value ([6]; 150 mg Once Daily (N = 475)) was 5.7%. For the same compound, the “Suicidal ideation, %” value ([6]; 150 mg Once Daily (N = 475)) was 0.2%, the “Depressed Mood, depression, depressive symptoms and or tearfulness, %” value ([6]; 200 mg Twice Daily (N = 477)) was 6.1% and the “Mood altered, mood swings, %” value ([6]; 200 mg Twice Daily (N = 477)) was 5.2%. The “Suicidal ideation, %” value ([6]; 200 mg Twice Daily (N = 477)) was 0.2%, the “incidence of depression and mood changes” value ([6]; vs placebo) was “higher incidence of depression and mood changes compared to placebo” and the “elagolix plasma concentrations in pups, % of the mother's plasma concentrations” value ([7]; dams 400 mg/kg daily in diet, non-restricted feeding group) was “approximately 1%”. The “elagolix plasma concentrations in pups” value ([7]; dams 400 mg/kg daily in diet, restricted feeding litters, post natal day 10 and 20) was “not measurable”, the secretion in milk ([7]; listed as elagolix) was “secreted minimally via milk; also recorded: minimally secreted in milk” and the “% Subjects Z-score ≤ −1.5 of Lumbar Spine” value [8, 10] was 0.8%. The “Mean Percent Change From Baseline in Bone Mineral Density of Lumbar Spine” value (“Mean Percent Change From Baseline” below) [8, 10] was −0.52%, the “% Subjects Z-score ≤ −1.5 of Lumbar Spine” value [8, 11] was 1.3% and the “Mean Percent Change From Baseline” value [8, 11] was −0.87%. The “% Subjects Z-score ≤ −1.5 of Lumbar Spine” value [8, 12] was 4.1%, the “Mean Percent Change From Baseline” value [8, 12] was −2.54% and the “% Subjects Z-score ≤ −1.5 of Lumbar Spine” value [8, 13] was 5.1%. The “Mean Percent Change From Baseline” value [8, 13] was −3.76%, the “BMD after stopping treatment” value ([8]; both elagolix treatment groups, lumbar spine, total hip and femoral neck, post-treatment months 6 and 12) was “progressive recovery of BMD” and the “patients with Z-score below the normal lower bound of −2.0” value ([8]; 150 mg daily dose) was “no patient”. The “patients with Z-score below the normal lower bound of −2.0” value ([8]; 200 mg BID dose) was “less than 1%” and the “Proportion of Responders, Dysmenorrhea (Month 3)” value [9] was 45.4*** %.
